Experimental data from patent US12630532B2, “Indole-substituted quinolines and their combination with Plk1 inhibitors for the treatment of cancer” (UNIVERSITY OF KENTUCKY RESEARCH FOUNDATION, priority 2021, dated 2026).

Assays:
LS174T cells = test: Cell proliferation inhibition assay (5 days, cell counting); format: cell-based
Experimental: (§1) Cell proliferation inhibition assays were done following a previous report (32). Cancer cells were seeded into 24-well plates at a density of 20,000 cells per well in 1 mL of culture medium and were cultured overnight at 37° C. Compounds and the vehicle control (DMSO) were added to the cells. After 5 days, the medium was removed, and 100 μL of trypsin was added. The cells were resuspended in phosphate-buffered saline (PBS) and were counted by Vi-CELL XR 2.03 (Beckman Coulter, Inc. USA). The ratio R of the number of viable cells in the compound treatment group to the number of viable cells in DMSO treatment group was taken as relative growth, and the percentage growth inhibition was calculated as (1−R)*100.

[1] = tested on: liver cancer cell line HepG2; test: Cell proliferation inhibition assay; format: cell-based; details: HepG2, 5 days (FIG. 1B)
Experimental: as §1

[2] = tested on: prostate cancer cell line PC-3; test: Cell proliferation inhibition assay; format: cell-based; details: PC-3, 5 days (FIG. 1B)
Experimental: as §1

[3] = tested on: sarcoma cell line SK-LMS-1; test: Cell proliferation inhibition assay; format: cell-based; details: SK-LMS-1, 5 days (FIG. 1B)
Experimental: as §1

TOPFlash Wnt reporter = TOPFlash Wnt reporter assay in stable HEK293T cells; format: cell-based; details: 24 hours treatment
Experimental: Wnt reporter assay was described previously (25). We subcloned Super 8×TOPFlash (provided by Professor Randall Moon, University of Washington) into the pGL4.83 [hRlucP/Puro] Vector and transfected it into HEK293T cells. A stable HEK293T cell line containing the TOPFlash reporter was established using puromycin selection (25). To assess if compounds of interest blocked the downstream signaling transduction pathway of β-catenin, the stable reporter cells were seeded to a 12-well plate and treated with 25 mM LiCl to stabilize β-catenin for 16 hours to activate Wnt signaling and then candidate compounds at predetermined concentrations for another 24 hours. The cells were lysed and centrifuged to obtain supernatants which were analyzed by FB 12 Single Tube Luminometer by Titertek-Berthold (Berthold Detection Systems GmbH, Elsässerstr, Germany).

[4] = tested on: Wnt signaling target genes c-Myc and axin2; test: Western blotting of Wnt signaling target genes in LS174T cells; format: cell-based; details: 24 hours
Experimental: (§2) Western blotting were performed according to previous procedures (25). Cells were split into 12-well plates. After 24 hours, compounds at indicated final concentrations were added to each well for another 24 hours unless otherwise noted. DMSO was used as a control. Cells were lysed in the appropriate volume of lysis buffer: 50 mM HEPES, 100 mM NaCl, 2 mM EDTA, 1% (v/v) glycerol, 50 mM NaF, 1 mM Na3VO4, 1% (v/v) Triton X-100, with protease inhibitors. Cell lysates were centrifuged, and supernatants were mixed with 6× protein loading buffer and boiled. The obtained samples were analyzed with standard western blotting methods with indicated antibodies.

AMPK [5] = test: AMPK activation (western blotting, pAMPK/pACC) in LS174T cells; format: cell-based
Experimental: as §2

AMPK [6] = test: AMPK signaling (western blotting) in Beas-2B cells; format: cell-based; details: compared with CRC cells
Experimental: as §2

[7] = tested on: mitochondrial ETC (electron transport chain); test: Seahorse assay (OCR) in LS174T cells; format: cell-based
Experimental: (§3) Seahorse assays were carried out following a published procedure (25). Briefly, 2.5×10^4 cells in 80 μL of medium were seeded in XF96 Cell Culture microplate for all experiments. On the next day, cell culture media were replaced with Seahorse XF modified media. Cells were treated with 1 μM of oligomycin A, 1.0 μM FCCP and mixture of 1.0 μM of rotenone and 1.0 μM of antimycin A in standard mitochondrial stress test conditions. To determine the uncoupler effects, FCCP was replaced with an equal volume of DMSO, or a compound to be tested in DMSO solution.

[8] = tested on: mitochondrial ETC (electron transport chain); test: Seahorse assay (OCR) in Beas-2B cells; format: cell-based
Experimental: as §3

[9] = tested on: mitochondrial ETC complex I; test: Mitochondrial ETC complex activity measurements using PMP-permeabilized cells; format: cell-based
Experimental: Mitochondrial ETC complex activity measurements were taken using the Agilent Seahorse Assay with XF PMP (Agilent, Santa Clara, CA) following manufacturer's instructions. Adherent monolayer cells were gently washed with mitochondrial assay solution (MAS) (220 mM mannitol, 70 mM sucrose, 10 mM KH2PO4, 5 mM MgCl2, 2 mM HEPES, 1 mM EGTA, and 0.2% (w/v) fatty acid free BSA) and cell growth media was replaced with MAS supplemented with 4 mM adenosine diphosphate (ADP), 10 mM pyruvate, and 1 nM PMP. Following calibration, the assay was immediately performed by measuring baseline with two cycles of 0.5 min mixing, 0.5 min waiting, and 2 min measuring. After baseline measurements, sequential injections of DMSO, compounds of interest or 2 μM rotenone, 10 mM succinate, 2 μM antimycin A, and a combination of 10 mM ascorbate and 100 μM TMPD were also performed with each followed by two cycles of 0.5 min mixing, 0.5 min waiting, and 2 min measuring. Data were then normalized to cell counts using the Biotek Cytation 1 (BioTek Instruments, Winooski, VT, USA).

Plk1 = test: Western blotting of cell signaling pathways in LS174T cells; format: cell-based; details: LS174T colon cancer cells, 24 hours
Experimental: as §2

[10] = tested on: mouse colon cancer organoids; test: Colon cancer organoids from Apc^f/+/Kras^LSL-G12D/Villin-Cre mouse model; format: cell-based
Experimental: The colon cancer organoids were isolated from Apc^f/+/Kras^LSL-G12D/Villin-Cre mouse model (38). Using 48-well drug screening to assess how compounds affected organoid colony formation, the Matrigel containing organoids was digested by 300 μL dispase. The gel was removed by 1,000×5 min spinning. The organoids were digested into single cells by 1 mL Trypsin and washed with 10 mL of ADF12. For each well, 80 μL of Matrigel was added to the bottom and 1000 cells in 60 μL Matrigel were added to the top. The cells were cultured in 250 μL of 3D complete medium (Advanced DMEM/F12 supplemented with 1×N-2, 1×B-27, 1 mM N-acetylcysteine and 1% penicillin/streptomycin). The cells were treated with DMSO or testing compounds and total number of organoids with diameter greater than 50 μm were analyzed and manually counted using microscope.
After 3 days when organoids formed, fresh culture media were supplied, and compounds were added for additional 3 days. Organoid viability was measured using CellTiter-Glo® 3D Cell Viability Assay (Promega) following manufacturer's protocol.

Solubility comparison = format: physicochemical; details: relative comparison

CN(C)c1ccc2cc(-c3cn(C)c4ccccc34)c(N)nc2c1 [ISQ-1, N^7,N^7-Dimethyl-3-(1-methyl-1H-indol-3-yl)quinoline-2,7-diamine]
percentage inhibition of LS174T cell proliferation at 500 nM, compared among ISQs (FIG. 2B) (LS174T cells; 500 nM): more active
inhibition at 0.062 µM (LS174T cells; Homo sapiens, LS174T, 120 h, 62 nM, 5 days): 16 ± 2%
inhibition at 0.125 µM (LS174T cells; Homo sapiens, LS174T, 120 h, 125 nM, 5 days): 22 ± 5%
inhibition at 0.25 µM (LS174T cells; Homo sapiens, LS174T, 120 h, 250 nM, 5 days): 38 ± 2.2%
inhibition at 0.5 µM (LS174T cells; Homo sapiens, LS174T, 120 h, 500 nM, 5 days): 91 ± 4.3%
inhibition at 0.3 µM (LS174T cells; Homo sapiens, LS174T, read-out: Inhibition % on LS174T cells Proliferation 0.3 uM Inhib. %): 83.9%
inhibition at 1 µM (LS174T cells; Homo sapiens, LS174T, read-out: Inhibition % on LS174T cells Proliferation 1 uM Inhib. %): 92.7%
inhibition at 3 µM (LS174T cells; Homo sapiens, LS174T, read-out: Inhibition % on LS174T cells Proliferation 3 uM Inhib. %): 99.3%
inhibited in vitro cell growth (LS174T cells; LS174T, 5 days (FIG. 1B)): nanomolar concentrations
inhibited in vitro cell growth [1]: nanomolar concentrations
inhibited in vitro cell growth [2]: nanomolar concentrations
inhibited in vitro cell growth [3]: nanomolar concentrations
TOPFlash Wnt reporter luciferase luminescence (TOPFlash Wnt reporter): inhibited TOPFlash Wnt reporter
effect on Wnt signaling target genes c-Myc and axin2 [4]: inhibited
AMPK activation (AMPK [5]): activated AMPK in a dose-dependent manner
AMPK signaling activation (AMPK [6]): less effective in activating AMPK signaling
ETC complex V inhibition (oligomycin replaced with compound) [7]: did not inhibit ETC complex V
ETC complex V inhibition (oligomycin replaced with compound) [8]: did not inhibit ETC complex V
uncoupler effect (FCCP replaced with compound) [8]: no uncouplers
ETC complex I inhibition (pyruvate/NADH-linked respiration) ([9]; pyruvate substrate): inhibited complex I
inhibition of complexes II, III, or IV (respiration after succinate) ([9]; succinate added): ruled out the possibility that ISQ-1 inhibited complexes II, III, or IV
Plk1 expression upon drug treatment (Plk1): induced
organoid growth (CellTiter-Glo 3D viability) ([10]; 3-day treatment after organoids formed): inhibited organoid growth in a dose-dependent manner
tumor organoid formation from single cells ([10]; day 7): inhibited tumor organoid formation from single cells
solubility (Solubility comparison): better than that of ISQ-7
